Source: patent US12157723B2, “Compounds” (CYBIN UK LTD, priority 2019, dated 2024)
Where two headings read alike, the source gives them in different places.

Tests used:
[1] = Solubility of API in water (vessel cleaning note); type: physicochemical
[2] = humans, 0.05 mg/kg to 0.4 mg/kg, bolus injections or infusions; cited from earlier work
[3] = without coadministration of a monoamine oxidase inhibitor; cited from earlier work
[4] = cited from earlier work; for participants with psychiatric diagnoses whose symptoms improved following use: uncontrolled setting, self-report

Q: For CN(C)CCc1c[nH]c2ccccc12.O=C(O)/C=C/C(=O)O [API, N,N-DMT fumarate], which solubility in water [1] is on record?
A: Its solubility in water is “API highly soluble”.

Q: With CN(C)CCc1c[nH]c2ccccc12 [DMT (SPL026), N,N-dimethyltryptamine] as the compound, how does the tolerability [2] read?
A: Its tolerability is “well-tolerated”.

Q: For COc1ccc2[nH]cc(CCN(C)C)c2c1 [Mixture 5-MeO-DMT, 5-methoxy-N,N-dimethyltryptamine], which oral bioavailability [3] is on record?
A: The oral bioavailability was “not orally bioavailable”.

Q: And the “individuals reporting improvements in their conditions following use” value ([4]; alcoholism or hazardous drinking, n=75 out of 113)?
A: The value was 66%.

Q: What about the “participants with psychiatric diagnoses whose symptoms improved following use” value (“participants” below) ([4]; anxiety) of the same compound?
A: The value was 69%.

Q: And the “participants” value ([4]; depression)?
A: Its value is 77%.

Q: And the “participants” value ([4]; post-traumatic stress disorder)?
A: The value was 79%.
